In patent US6716858B1, “Methods for inhibiting diabetic complications” (Kansas University Medical Center, priority 1995, dated 2004):

Tests used:
[1] = test system: AGE formation in bovine serum albumin (BSA); experiment: Uninterrupted glycation of BSA with glucose, anti-AGE ELISA; format: biochemical; conditions: BSA 10 mg/ml, 1.0 M glucose, pH 7.5, 37° C., 6 weeks; inhibitors 3, 15 and 50 mM
Description: (§1) Uninterrupted Glycation with Glucose Bovine serum albumin, ribonuclease A, and human hemoglobin were incubated with glucose at 37° C. in 0.4 M sodium phosphate buffer of pH 7.5 containing 0.02% sodium azide. The protein, glucose (at 1.0 M), and prospective inhibitors (at 0.5, 3, 15 and 50 mM) were introduced into the incubation mixture simultaneously. Solutions were kept in the dark in capped tubes. Aliquots were taken and immediately frozen until analyzed by ELISA at the conclusion of the reaction. The incubations were for 3 weeks (Hb) or 6 weeks (RNase, BSA).
(§2) ELISA detection of AGE products. The general method of Engvall (1981, Methods Enzymol. 70:419-439) was used to perform the ELISA. Typically, glycated protein samples were diluted to approximately 1.5 ug/ml in 0.1 M sodium carbonate buffer of pH 9.5 to 9.7. The protein was coated overnight at room temperature onto 96-well polystyrene plates by pippetting 200 ul of the protein solution in each well (0.3 ug/well). After coating, the protein was washed from the wells with a saline solution containing 0.05% Tween-20. The wells were then blocked with 200 ul of 1% casein in carbonate buffer for 2 h at 37° C. followed by washing. Rabbit anti-AGE antibodies were diluted at a titer of about 1:350 in incubation buffer, and incubated for 1 h at 37° C., followed by washing. In order to minimize background readings, antibodies R479 used to detect glycated RNase were raised against glycated BSA, and antibodies R618 used to detect glycated BSA and glycated Hb were raised against glycated RNase. An alkaline phosphatase-conjugated antibody to rabbit IgG was then added as the secondary antibody at a titer of 1:2000 or 1:2500 (depending on lot) and incubated for 1 h at 37° C., followed by washing. The p-nitrophenylphosphate substrate solution was then added (200 ul/well) to the plates, with the absorbance of the released p-nitrophenolate being monitored at 410 nm with a Dynatech MR 4000 microplate reader.
FIGS. 1 A-D are graphs which show the effect of vitamin B6 derivatives on post-Amadori AGE formation in bovine serum albumin glycated with glucose. BSA (10 mg/ml) was incubated with 1.0 M glucose in the presence and absence of the various indicated derivative in 0.4 M sodium phosphate buffer of pH 7.5 at 37° C. for 6 weeks. Aliquots were assayed by ELISA using R618 anti-AGE antibodies. Concentrations of the inhibitors were 3, 15 and 50 mM. Inhibitors used in FIGS. (1A) Pyridoxamine (PM); (1B) pyridoxal phosphate (PLP); (1C) pyridoxal (PL); (1D) pyridoxine (PN).
FIGS. 2A-D are graphs which show the effect of vitamin B1 derivatives and aminoguanidine (AG) on AGE formation in bovine serum albumin. BSA (10 mg/ml) was incubated with 1.0 M glucose in the presence and absence of the various indicated derivative in 0.4 M sodium phosphate buffer of pH 7.5 at 37° C. for 6 weeks. Aliquots were assayed by ELISA using R618 anti-AGE antibodies. Concentrations of the inhibitors were 3, 15 and 50 mM. Inhibitors used in FIGS. (2A) Thiamine pyrophosphate (TPP); (2B) thiamine monophosphate (TP); (2C) thiamine (T); (2D) aminoguanidine (AG).

[2] = test system: AGE formation during uninterrupted glycation of ribonuclease A (RNase A) by ribose; experiment: Uninterrupted ribose glycation assay, RNase; format: biochemical, bovine; conditions: continuous 0.05 M ribose, 6 weeks, inhibitors 0.5-50 mM
Description: as §2
as §1, with “ribose glycation assays” for “Glycation with Glucose”, “ribose” for “glucose”, “protein (10 mg/ml or 1 mg/ml), 0.05 M ribose,” for “protein, glucose (at 1.0 M),”, “BSA). Glycation reactions were monitored for constant pH throughout the duration of the experiments.” for “BSA).”
The inhibitory effects of vitamin B1 and B6 derivatives on the kinetics of antigenic AGE formation were evaluated by polyclonal antibodies specific for AGEs. Initial inhibition studies were carried out on the glycation of bovine ribonuclease A (RNase) in the continuous presence of 0.05 M ribose, which is the concentration of ribose where the rate of AGE formation is near maximal.

[3] = test system: AGE formation during uninterrupted glycation of bovine serum albumin (BSA) by ribose; experiment: Uninterrupted ribose glycation assay, BSA; format: biochemical; conditions: 0.05 M ribose, 6 weeks, inhibitors 0.5-50 mM
Description: as §2
as §1, with “ribose glycation assays” for “Glycation with Glucose”, “ribose” for “glucose”, “protein (10 mg/ml or 1 mg/ml), 0.05 M ribose,” for “protein, glucose (at 1.0 M),”, “BSA). Glycation reactions were monitored for constant pH throughout the duration of the experiments.” for “BSA).”

[4] = test system: post-Amadori AGE formation, RNase Amadori intermediate; experiment: Interrupted (post-Amadori) ribose glycation assay, RNase; format: biochemical, bovine; conditions: RNase, 24 h in 0.5 M ribose, then free ribose removed, 37° C.
Description: as §2
Glycation Modifications Modification with ribose or glucose was generally done at 37° C. in 0.4 M phosphate buffer of pH 7.5 containing 0.02% sodium azide. The high buffer concentration was always used with 0.5 M ribose modifications. The solutions were kept in capped tubes and opened only to remove timed aliquots that were immediately frozen for later carrying out the various analyses. “Interrupted glycation” experiments were carried out by first incubating protein with the ribose at 37° C. for 8 or 24 h, followed by immediate and extensive dialysis against frequent cold buffer changes at 4° C. The samples were then reincubated by quickly warming to 37° C. in the absence of external ribose. Aliquots were taken and frozen at various intervals for later analysis. Due to the low molecular weight of RNase, protein concentrations were remeasured after dialysis even when low molecular weight cut-off dialysis tubing was used. An alternative procedure was also devised (see below) in which interruption was achieved by simple 100-fold dilution from reaction mixtures containing 0.5 M ribose. Protein concentrations were estimated from UV spectra. The difference in molar extinction between the peak (278 nm) and trough (250 nm) was used for RNase concentration determinations in order to compensate for the general increase in UV absorbance that accompanies glycation. Time-dependent UV-difference spectral studies were carried out to characterize the glycation contributions of the UV spectrum. […]
Glycation was first carried out by incubating protein (10 mg/ml) with 0.5 M ribose at 37° C. in 0.4 M phosphate buffer at pH 7.5 containing 0.2% sodium azide for 24 h in the absence of inhibitors. Glycation was then interrupted to remove excess and reversibly bound (Schiff base) sugar by extensive dialysis against frequent cold buffer changes at 4° C.

[5] = test system: post-Amadori AGE formation, BSA Amadori intermediate; experiment: Interrupted (post-Amadori) ribose glycation assay, BSA; format: biochemical, bovine; conditions: 24 h in 0.5 M ribose, then free ribose removed, 37° C.
Description: as §2
Glycation was first carried out by incubating protein (10 mg/ml) with 0.5 M ribose at 37° C. in 0.4 M phosphate buffer at pH 7.5 containing 0.2% sodium azide for 24 h in the absence of inhibitors. Glycation was then interrupted to remove excess and reversibly bound (Schiff base) sugar by extensive dialysis against frequent cold buffer changes at 4° C. The glycated intermediate samples containing maximal amount of Amadori product and little AGE (depending on protein) were then quickly warmed to 37° C. without re-addition of ribose. This initiated conversion of Amadori intermediates to AGE products in the absence or presence of various concentrations (typically 3, 15 and 50 mM) of prospective inhibitors. Aliquots were taken and frozen at various intervals for later analysis. The solutions were kept in capped tubes and opened only to remove timed aliquots that were immediately frozen for later carrying out the various analyses.

rats = experiment: Ribose administration to rats (Phase I and II), renal physiology; format: in vivo, rat
Description: Two groups of six rats each were given in one day either:
a. 300 mM ribose (two intraperitoneal infusions 6-8 hours apart, each 5% of body weight as ml); or
b. 50 mM ribose (one infusion)
Rats were then kept for 4 days with no further ribose administration, at which time they were sacrificed and the following physiological measurements were determined: (i) initial and final body weight; (ii) final stage kidney weight; (iii) initial and final tail-cuff blood pressure; (iv) creatinine clearance per 100 g body weight.
Groups of rats (3-6) were intraperitoneally given 0.3 M “low ribose dose” (LR) or 1.0 M “high ribose dose” (HR) by twice-daily injections for either (i) 1 day, (ii) a “short-term” (S) of 4 days, or (iii) a “long-term” (L) of 8 days. Additionally, these concentrations of ribose were included in drinking water.

ribose-treated rats = experiment: Ribose rat model, intervention by compounds (Phase III); format: in vivo; conditions: 1 M ribose alone, 8 days
Description: Sixty rats were randomized into 9 different groups, including those exposed to 1 M ribose for 8 days in the presence and absence of aminoguanidine, pyridoxamine, and thiamine pyrophosphate as follows:
(ii) high dose (250 mg/kg body weight) of pyridoxamine (“compound-P”);
(iii) high dose (250 mg/kg body weight of thiamine pyrophosphate (“compound-T” or “TPP”); and
(iv) low dose (25 mg/kg body weight) of aminoguanidine (“AG”).
(i) only 1 M ribose-saline (2×9 cc daily IP for 8 days);
(ii) ribose plus low dose (“LP”) of pyridoxamine (25 mg/kg body weight injected as 0.5 ml with 9 cc ribose);
(iii) ribose plus high dose (“HP”) of pyridoxamine (250 mg/kg body weight injected as 0.5 ml with 9 cc ribose);
(iv) ribose plus high dose (“HT”) of thiamine pyrophosphate (250 mg/kg body weight injected as 0.5 ml with 9 cc ribose); and
(v) ribose plus low dose of amino guanidine (25 mg/kg body weight injected as 0.5 ml with 9 cc ribose).
Unlike Phase II, no ribose was administered in drinking water. Intervention compounds were pre-administered for one day prior to introducing them with ribose.

[6] = Phase II: 0.3 M or 1.0 M ribose for 1, 4 or 8 days

Row | Compound | inhibition of antigenic AGE formation (ELISA) [1] | inhibition of overall kinetics of AGE formation from ribose [2] | inhibition of overall kinetics of AGE formation from ribose [3] | inhibition of post-Amadori AGE formation [4] | inhibition of post-Amadori AGE formation [5] | Albumin effusion rate (AER) (rats; [6]) | creatinine clearance (rats; [6]) | tail-cuff blood pressure (rats; Phase II: 0.3 M or 1.0 M ribose twice daily IP for 1, 4 or 8 days, also in drinking water) | tail-cuff blood pressure (rats; high ribose (2×300 mM) in one day, measured 4 days later, from 66±4) | creatinine clearance (rats; high ribose (2×300 mM), normal range expected about 1.0-1.2) [cc per 100 g body weight] | tail-cuff blood pressure (rats; low ribose (1×50 mM) in one day, measured 4 days later, from 66±4) | creatinine clearance (rats; low ribose (1×50 mM), normal range expected about 1.0-1.2) [cc per 100 g body weight] | Albumin effusion rate (AER) (ribose-treated rats)
1 | Cc1ncc(CO)c(C=O)c1O [pyridoxal] | effective above 15 mM | significantly inhibited the rate of AGE formation on RNase at concentrations of 50 mM and 15 mM | mostly inhibited the rate of AGE formation, but not the final levels of AGE formed | did not show any significant inhibition at 15 mM |  |  |  |  |  |  |  |  | 
2 | Cc1ncc(CO)c(CO)c1O [pyridoxine] | slightly effective at the highest concentrations tested | moderately inhibited AGE formation on RNase | failed to inhibit AGE formation on BSA |  | did not produce any inhibition |  |  |  |  |  |  |  | 
3 | Cc1ncc(C[n+]2csc(CCO)c2C)c(N)n1 [thiamine] | not inhibitory | little effect on the rate of AGE formation, but a substantial decrease in the final level of AGE formed in the presence of the highest concentration of inhibitor | inhibited the final levels of AGEs formed, without greatly affecting the rate of AGE formation | showed no effect | showed no effect |  |  |  |  |  |  |  | 
4 | Cc1ncc(C[n+]2csc(CCOP(=O)(O)O)c2C)c(N)n1 [thiamine monophosphate] | not inhibitory | little effect on the rate of AGE formation, but a substantial decrease in the final level of AGE formed in the presence of the highest concentration of inhibitor |  | showed some intermediate effect | showed some intermediate effect |  |  |  |  |  |  |  | 
5 | O=C[C@H](O)[C@H](O)[C@H](O)CO [ribose] |  |  |  | diminished by increasing ribose concentrations |  | increased significantly in a ribose-dependent manner at 1-day and 4-day exposures | decreased in all groups in a ribose dose-dependent and time-dependent manner | increased in all groups of ribose-treated rats | 106±5 | 0.62±0.13 | 83±3 | 0.87±0.15 | elevated
6 | Cc1ncc(COP(=O)(O)O)c(C=O)c1O [pyridoxal phosphate, pyridoxal-5′-phosphate] | strongly suppressed antigenic AGE formation at even the lowest concentrations tested | significantly inhibited the rate of AGE formation on RNase at concentrations of 50 mM and 15 mM | mostly inhibited the rate of AGE formation, but not the final levels of AGE formed | showed significant inhibition at 15 mM |  |  |  |  |  |  |  |  | 
